We go through 24 compounds from patent publication US12226405B2, “Compounds and compositions for inhibiting the activity of HIF2-alpha and their methods of use” (Novartis AG, priority 2020, dated 2025).

For orientation: IC50 means the concentration at which inhibition is half-maximal.

Some results are limits rather than exact numbers.

The subject of assay [1] is HIF2α-dependent transcription in 786-O-HRE-Luc cells. Nature of the assay: In vitro cellular hypoxia response element (HRE) reporter gene assay (RGA) for HIF2α. The class given is cell-based, human. Conditions: Homo sapiens, 24 hours incubation. The procedure, abridged: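 Renal carcinoma cells carrying a 4×HRE-driven PEST-destabilised firefly luciferase were treated a day after seeding with eleven 2-fold compound dilutions (0.1% DMSO) for 24 h at 37° C. BrightGlo luminescence, background-subtracted and expressed as % of DMSO control, was fitted four-parametrically for IC50.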

The target of assay [2] is HIF2α PAS-B domain (236-350, biotinylated on the N-terminus) (Homo sapiens (Human), UniProt Q99814).
Experimental: The assay buffer contained 50 mM Tris-HCl pH7 (Sigma), 20 mM NaCl (Fluka), 0.02% BSA (Sigma), 0.005% Triton X-100 (Pierce) and 1 mM DTT (Fluka). After a 30 min incubation period, 5 μL Streptavidin PVT SPA Beads (Perkin Elmer) at 1.2 mg/mL, diluted in the buffer, were added.
Assay [3] has as its system HIF2α-regulated expression of the endogenous target gene hEGLN3 in 786-O cells. Nature of the assay: Cellular iScript assay for HIF2α (quantitative RT-PCR of hEGLN3). The note with it: Homo sapiens, 786-0, 48 hours incubation. It is filed as cell-based, human. In a few lines:
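786-O cells were exposed to eleven 2-fold compound dilutions for 48 h at 37° C. Lysates underwent one-step TaqMan qRT-PCR for hEGLN3 with beta-actin as reference; 2^(−ΔΔCt) versus DMSO, as % of control, was fit with a four-parameter model to give IC50.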

Sequence of HIF2α PAS-B domain (236-350, biotinylated on the N-terminus) (Q99814 236-350): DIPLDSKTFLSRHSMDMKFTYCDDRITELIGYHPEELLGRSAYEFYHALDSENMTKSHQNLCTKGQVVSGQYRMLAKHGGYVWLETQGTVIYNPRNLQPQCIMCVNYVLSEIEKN

As to `Fc1cccc2c1COC[C@@]21CN2C=C(C(F)(F)F)C=C(OC(F)F)C2=N1` [Example 63, (S)-8-(difluoromethoxy)-8′-fluoro-6-(trifluoromethyl)-3H-spiro[imidazo[1,2-a]pyridine-2,4′-isochroman]], the figures for the IC50 in assay [1], in assay [2] and in assay [3] were 465 nM, 11 nM and 197 nM, respectively.

As for `Fc1c(Br)ccc2c1CCC[C@@]21CN2C=C(Cl)C=C(OC(F)F)C2=N1` [Example 89, (S)-6′-bromo-6-chloro-8-(difluoromethoxy)-5′-fluoro-3′,4′-dihydro-2′H,3H-spiro[imidazo[1,2-a]pyridine-2,1′-naphthalene]], the IC50 in assay [1] was 220 nM; in assay [2], at most 7 nM; in assay [3] it was 34 nM.

Turning to `Cc1nccc2c1C(F)(F)CC[C@@]21CN2C=C(C(F)(F)F)C=C(OC(F)F)C2=N1` [Example 32, (S)-8-(difluoromethoxy)-8′,8′-difluoro-1′-methyl-6-(trifluoromethyl)-7′,8′-dihydro-3H,6′H-spiro[imidazo[1,2-a]pyridine-2,5′-isoquinoline]], the IC50 was 861 nM in assay [1], 13 nM in assay [2] and 78 nM in assay [3].

As for `FC(F)OC1=CC(C(F)(F)F)=CN2C[C@@]3(CCOc4c(Cl)cccc43)N=C12` [Example 48, (S)-8-chloro-8′-(difluoromethoxy)-6′-(trifluoromethyl)-3′H-spiro[chroman-4,2′-imidazo[1,2-a]pyridine]], the IC50 in assay [1] is 974 nM; in assay [2], at most 10 nM; in assay [3] it was 63 nM.

Take `FCOC1=CC(C(F)(F)F)=CN2C[C@@]3(CCOc4c(Cl)cccc43)N=C12` [Example 95, (S)-8-chloro-8′-(fluoromethoxy)-6′-(trifluoromethyl)-3′H-spiro[chromane-4,2′-imidazo[1,2-a]pyridine]]: the IC50 amounted to 271 nM in assay [1], 23 nM in assay [2] and 181 nM in assay [3].

For `N#Cc1ccc2c(c1F)[C@@H](F)CC[C@@]21CN2C=C(C(F)(F)F)C=C(OC(F)F)C2=N1` [Example 25, (1′S,4'S)-8-(difluoromethoxy)-4′,5′-difluoro-6-(trifluoromethyl)-3′,4′-dihydro-2′H,3H-spiro[imidazo[1,2-a]pyridine-2,1′-naphthalene]-6′-carbonitrile], the IC50 in assay [1] amounted to 202 nM; in assay [2] it was 19 nM; in assay [3] it was 83 nM.

Regarding `Fc1c(Br)ccc2c1CCC[C@@]21CN2C=C(C(F)(F)F)C=C(OC(F)F)C2=N1` [Example 7, (S)-6′-bromo-8-(difluoromethoxy)-5′-fluoro-6-(trifluoromethyl)-3′,4′-dihydro-2′H,3H-spiro[imidazo[1,2-a]pyridine-2,1′-naphthalene]], the figures for the IC50 in assay [1], in assay [2] and in assay [3] were 82 nM, at most 3 nM and 32 nM, respectively.

For `N#CC1=CN2C[C@@]3(CCCc4c(F)cccc43)N=C2C(OC(F)F)=C1` [Example 26, (S)-8-(difluoromethoxy)-5′-fluoro-3′,4′-dihydro-2′H,3H-spiro[imidazo[1,2-a]pyridine-2,1′-naphthalene]-6-carbonitrile], the IC50 in assay [1] is 144 nM; in assay [2], at most 6 nM; in assay [3] it was 34 nM.

Take `FCOC1=CC(C(F)(F)F)=CN2C[C@@]3(CCOc4c3ccc(Br)c4F)N=C12` [Example 42, (S)-7-bromo-8-fluoro-8′-(fluoromethoxy)-6′-(trifluoromethyl)-3′H-spiro[chroman-4,2′-imidazo[1,2-a]pyridine]]: the IC50 in assay [1] worked out at 96 nM; in assay [2] it was 8 nM; in assay [3] it was 72 nM.

In the case of `O[C@H]1c2c(ccc(Br)c2F)[C@@]2(C[C@H]1F)CN1C=C(C(F)(F)F)C=C(OC(F)F)C1=N2` [Example 10, (1′S,3′R,4'S)-6′-bromo-8-(difluoromethoxy)-3′,5′-difluoro-6-(trifluoromethyl)-3′,4′-dihydro-2′H,3H-spiro[imidazo[1,2-a]pyridine-2,1′-naphthalen]-4′-ol], the IC50 was 207 nM in assay [1], 21 nM in assay [2] and 77 nM in assay [3].

`COc1ccc2c(c1F)OCC[C@@]21CN2C=C(C(F)(F)F)C=C(OC(F)F)C2=N1` [Example 103, (S)-8′-(difluoromethoxy)-8-fluoro-7-methoxy-6′-(trifluoromethyl)-3′H-spiro[chromane-4,2′-imidazo[1,2-a]pyridine]]: the IC50 in assay [1] is 417 nM; in assay [2], 42 nM; in assay [3], 109 nM.

In the case of `Fc1cccc2c1CCC[C@@]21CN2C=C(C(F)(F)F)C=C(OC(F)F)C2=N1` [Example 28, (S)-8-(difluoromethoxy)-5′-fluoro-6-(trifluoromethyl)-3′,4′-dihydro-2′H,3H-spiro[imidazo[1,2-a]pyridine-2,1′-naphthalene]], the IC50 in assay [1] came out at 169 nM; in assay [2], 5 nM; in assay [3] it was 66 nM.

Take `Fc1cccc2c1OCC[C@@]21CN2C=C(C(F)(F)F)C=C(OC(F)F)C2=N1` [Example 47, (S)-8′-(difluoromethoxy)-8-fluoro-6′-(trifluoromethyl)-3′H-spiro[chroman-4,2′-imidazo[1,2-a]pyridine]]: the IC50 in assay [1] worked out at 694 nM; in assay [2], 11 nM; in assay [3] it was 82 nM.

For `FC(F)OC1=CC(C(F)(F)F)=CN2C[C@@]3(CCCc4cc(C(F)(F)F)ccc43)N=C12` [Example 86, (S)-8-(difluoromethoxy)-6,6′-bis(trifluoromethyl)-3′,4′-dihydro-2′H,3H-spiro[imidazo[1,2-a]pyridine-2,1′-naphthalene]], the IC50 in assay [1] is 179 nM; in assay [2] it was 13 nM; in assay [3], 64 nM.

With `Fc1cccc2c1SCC[C@@]21CN2C=C(C(F)(F)F)C=C(OC(F)F)C2=N1` [Example 65, (S)-8-(difluoromethoxy)-8′-fluoro-6-(trifluoromethyl)-3H-spiro[imidazo[1,2-a]pyridine-2,4′-thiochroman]], the IC50 was 114 nM in assay [1], at most 3 nM in assay [2] and 30 nM in assay [3].

Turning to `FC1=CC(C(F)(F)F)=CN2C[C@@]3(CCCc4c3ccc(F)c4F)N=C12` [Example 29, (S)-5′,6′,8-trifluoro-6-(trifluoromethyl)-3′,4′-dihydro-2′H,3H-spiro[imidazo[1,2-a]pyridine-2,1′-naphthalene]], the IC50 was 1310 nM in assay [1], 8 nM in assay [2] and 93 nM in assay [3].

Regarding `N#CC1=CN2C[C@@]3(CCCc4c3ccc(F)c4F)N=C2C(OC(F)F)=C1` [Example 91, (S)-8-(difluoromethoxy)-5′,6′-difluoro-3′,4′-dihydro-2′H,3H-spiro[imidazo[1,2-a]pyridine-2,1′-naphthalene]-6-carbonitrile], the IC50 was 262 nM in assay [1], 5 nM in assay [2] and 30 nM in assay [3].

As to `N#Cc1ccc2c(c1F)CCC[C@@]21CN2C=C(C(F)(F)F)C=C(OC(F)F)C2=N1` [Example 22, (S)-8-(difluoromethoxy)-5′-fluoro-6-(trifluoromethyl)-3′,4′-dihydro-2′H,3H-spiro[imidazo[1,2-a]pyridine-2,1′-naphthalene]-6′-carbonitrile], the IC50 was found to be 185 nM in assay [1], 8 nM in assay [2] and 37 nM in assay [3].

As to `Fc1c(C(F)(F)F)ccc2c1CC[C@@]21CN2C=C(C(F)(F)F)C=C(OC(F)F)C2=N1` [Example 74, (S)-8-(difluoromethoxy)-4′-fluoro-5′,6-bis(trifluoromethyl)-2′,3′-dihydro-3H-spiro[imidazo[1,2-a]pyridine-2,1′-indene]], the IC50 in assay [1] was 517 nM; in assay [2], at most 10 nM; in assay [3], 108 nM.

As for `N#CC1=CN2C[C@@]3(CCCc4c3ccnc4Cl)N=C2C(OC(F)F)=C1` [Example 94, (S)-1′-chloro-8-(difluoromethoxy)-7′,8′-dihydro-3H,6′H-spiro[imidazo[1,2-a]pyridine-2,5′-isoquinoline]-6-carbonitrile], the IC50 in assay [1] amounted to 2260 nM; in assay [2], 33 nM; in assay [3], 197 nM.

In the case of `FC(F)OC1=CC(C(F)(F)F)=CN2C[C@@]3(CCC(F)(F)c4c3ccnc4C(F)F)N=C12` [Example 70, (S)-8-(difluoromethoxy)-1′-(difluoromethyl)-8′,8′-difluoro-6-(trifluoromethyl)-7′,8′-dihydro-3H,6′H-spiro[imidazo[1,2-a]pyridine-2,5′-isoquinoline]], the IC50 in assay [1] is 1670 nM; in assay [2] it was 20 nM; in assay [3], 96 nM.

Take `Fc1ccc2c(c1F)CC[C@@]21CN2C=C(C(F)(F)F)C=C(OC(F)F)C2=N1` [Example 2, (S)-8-(difluoromethoxy)-4′,5′-difluoro-6-(trifluoromethyl)-2′,3′-dihydro-3H-spiro[imidazo[1,2-a]pyridine-2,1′-indene]]: the IC50 was 1530 nM in assay [1], 12 nM in assay [2] and 152 nM in assay [3].

With `N#CC1=CN2C[C@@]3(CCc4c3ccc(Br)c4F)N=C2C(OC(F)F)=C1` [Example 4, (S)-5′-bromo-8-(difluoromethoxy)-4′-fluoro-2′,3′-dihydro-3H-spiro[imidazo[1,2-a]pyridine-2,1′-indene]-6-carbonitrile], the figures for the IC50 in assay [1], in assay [2] and in assay [3] were 699 nM, 9 nM and 155 nM, respectively.

As for `N#CC1=CN2C[C@@]3(CCOc4c3ccc(Br)c4F)N=C2C(OC(F)F)=C1` [Example 49, (S)-7-bromo-8′-(difluoromethoxy)-8-fluoro-3′H-spiro[chroman-4,2′-imidazo[1,2-a]pyridine]-6′-carbonitrile], the IC50 turned out to be 979 nM in assay [1], 12 nM in assay [2] and 173 nM in assay [3].
